Legend:
[1] = tested on: tobacco cutworms (Spodoptera litura); assay: Test method 3: sprayed cabbage seedling, tobacco cutworm larvae; format: in vivo; conditions: 120 h, sprayed 20 mL/seedling on cabbage, second instar larvae, after 5 days, 25° C., read-out: mortality of insects
Experimental: Test compounds are made to a formulation according to a similar method to that described in the Formulation example 5, and thereto is added water containing 0.03 v/v % of Shindain (registered trademark) to prepare a diluted solution containing a prescribed concentration of the test compound.
Cabbage (Brassicae oleracea) seedling (on the developmental stage of the second to third true leaf) is planted in a cup, and the diluted solutions are sprayed into the seedling at a ratio of 20 mL/seedling. Thereafter, the stem and leaf thereof is cut out and then is installed into a cup that is covered with filter paper on the bed of the cup. Five (5) tobacco cutworms (Spodoptera litura) at the second instar larval stage are released into the cup. After 5 days, the number of the surviving insects is counted, and the mortality of insects is calculated by the following equation. Mortality (%)=(1−Number of surviving insects/5)×100
Present compound Nos: 1, 3, 4, 6 to 12, 23, 25 to 30, 32, 35 to 43, 47 to 49, 92, 93, 97, and 107

[2] = tested on: Western corn rootworms (Diabrotica virgifera virgifera); assay: Test method 5: corn seedling immersed in diluted solution, Western corn rootworm larvae; format: in vivo; conditions: 120 h, corn seedling immersed 30 seconds, second instar larvae, after 5 days, 25° C., read-out: mortality of insects
Experimental: Each 1 mg of the test compounds is dissolved into 50 μL of a mixed solution of polyoxyethylene sorbitan mono-cocoate and acetone (polyoxyethylene sorbitan mono-cocoate:acetone=5:95 (v/v ratio)). Thereto is added water containing 0.03% by volume of Shindain (registered trademark) to prepare a diluted solution containing a prescribed concentration of the test compound.
A young entire seedling of Corns (Zea mays) is immersed into the diluted solution for 30 seconds. Thereafter, each two grains of the seedlings are installed in a plastic petri dish ([…]), and 10 Western corn rootworms (Diabrotica virgifera virgifera) at the second instar larval stage are released into the dish. After 5 days, the number of the dead insects is counted, and the mortality of insects is calculated by the following equation. Mortality (%)={Number of dead insects/10}×100
Present compound Nos: 1, 4, 7, 9 to 13, 23, 24, 26 to 29, 32, 33, 35, 38, 39, 41, 43, 44, 47, 48, 59, 60, 62, 63, 67 to 70, 73 to 83, and 96

In the case of `CCSc1c(-c2ccc(OCC(F)(F)C(F)(F)F)n(C)c2=O)nc2ccc(C(F)(F)F)cn12` [compound 1], the mortality at 500 ppm [1] is reported as at least 80% and the mortality at 500 ppm [2] is reported as at least 80%.
